Earlier results as cited in patent US6777573B1, “Method for the synthesis of ceralure B1” (The United States of America as represented by the …, priority 2002, dated 2004).
Entries after “also recorded” stand apart in the source; their conditions may differ.

Test system: Ceratitis capitata (Mediterranean fruit fly, medfly)

Row | SMILES | higher attractancy than the racemate (optically active form versus racemic ceralure B1 (Raw et al.)) | relative attractiveness among ceralure isomers (isomers separated by HPLC, study of 4 trans isomers (Warthen et al. 1994))
1 | CCOC(=O)C1CC(I)CCC1C (single isomer, unassigned; (-)) [(−)ceralure B1, reference compound] | about 30% | 
2 | CCOC(=O)C1CC(I)CCC1C (mixture of isomers) [ceralure B1, ethyl cis,trans-5-iodo-2-methylcyclohexane-1-carboxylate] |  | most active isomer; also recorded: superior to the other three isomers
